Four compounds from ChEMBL document CHEMBL4177616, “Potent anti-melanogenic activity and favorable toxicity profile of selected 4-phenyl hydroxycoumarins in the zebrafish model and the computational molecular modeling studies” (Bioorg Med Chem, 2017) can be followed below.

The nature of data set [1]: Toxicity in wild type zebrafish embryos assessed as dead embryo at 15 ug/ml treated for 96 hrs post fertilization starting from 6 hrs post fertilization by inverted microscopic analysis relative to control. The settings on record: in vivo, read-out: Activity. The format is organism-based, Danio rerio.
The species named for data set [2] is Danio rerio. The data set can be described thus: Toxicity in wild type zebrafish embryos assessed as head malformation at 20 ug/ml treated for 96 hrs post fertilization starting from 6 hrs post fertilization by inverted microscopic analysis relative to control. The conditions noted are these: in vivo. Format: organism-based.
For data set [3], the species on record is Danio rerio. Put plainly: Toxicity in wild type zebrafish embryos assessed as skeletal deformities at 15 ug/ml treated for 96 hrs post fertilization starting from 6 hrs post fertilization by inverted microscopic analysis relative to control. The conditions noted are these: in vivo. The format is organism-based.
The target of data set [4] is T1, Tyrosinase (Danio rerio) (UniProt A0A8M1PAD4).
T1 sequence (whole entry): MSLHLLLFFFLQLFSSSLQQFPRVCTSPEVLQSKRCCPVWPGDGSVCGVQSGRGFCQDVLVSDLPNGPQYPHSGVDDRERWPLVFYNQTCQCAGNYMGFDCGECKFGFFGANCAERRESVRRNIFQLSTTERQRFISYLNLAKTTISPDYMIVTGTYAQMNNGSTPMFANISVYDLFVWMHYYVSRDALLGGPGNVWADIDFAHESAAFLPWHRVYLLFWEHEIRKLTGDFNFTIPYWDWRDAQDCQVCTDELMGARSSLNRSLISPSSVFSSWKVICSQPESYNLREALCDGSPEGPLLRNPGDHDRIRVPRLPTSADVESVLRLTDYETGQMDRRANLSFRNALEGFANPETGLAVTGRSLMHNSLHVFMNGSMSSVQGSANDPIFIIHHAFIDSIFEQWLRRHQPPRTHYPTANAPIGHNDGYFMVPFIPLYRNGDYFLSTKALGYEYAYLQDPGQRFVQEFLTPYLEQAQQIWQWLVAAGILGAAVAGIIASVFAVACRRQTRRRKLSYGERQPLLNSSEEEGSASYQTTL
Put plainly: Inhibition of zebrafish embryo tyrosinase assessed as melanin production at 5 ug/ml after 48 hrs relative to control; values are per cent of control.

Data set [5] addresses T1, Tyrosinase (Danio rerio). Put plainly: Potency index, ratio of kojic acid IC50 to compound IC50 for zebrafish embryo tyrosinase assessed as melanin production.
Data set [6] has as its system Neutrophil. Put plainly: Cytotoxicity against […] transgenic zebrafish 24 hrs post fertilization embryo neutrophils assessed as reduction in neutrophil at 25 ug/ml treated for 72 hrs post fertilization starting from 6 to 24 hrs post fertilization. The format is cell-based, Danio rerio.
Data set [7] deals with Neutrophil. Put plainly: Anti-melanogenic activity in mpx:GFP transgenic zebrafish 24 hrs post fertilization embryo neutrophils assessed as decrease in pigmentation at 25 ug/ml. Format: functional, cell-based. The conditions noted are these: Danio rerio.
For data set [8], the species on record is Danio rerio. The data set can be described thus: Toxicity in wild type zebrafish embryos assessed as blood circulation at 15 ug/ml treated for 96 hrs post fertilization starting from 6 hrs post fertilization by inverted microscopic analysis relative to control. The format is organism-based. The conditions noted are these: in vivo.
The species named for data set [9] is Danio rerio. The data set can be described thus: Toxicity in wild type zebrafish embryos assessed as teratogenic embryo at 15 ug/ml treated for 96 hrs post fertilization starting from 6 hrs post fertilization by inverted microscopic analysis relative to control. Format: organism-based. The conditions noted are these: in vivo.
The nature of a further data set: in vivo. The settings on record: zebrafish.
For data set [10], the species on record is Danio rerio. Put plainly: Toxicity in wild type zebrafish embryos assessed as growth retardation at 2000 ug/ml treated for 96 hrs post fertilization starting from 6 hrs post fertilization by inverted microscopic analysis relative to control. Format: organism-based. The settings on record: in vivo.
The test system of data set [11] is Neutrophil. Put plainly: Cytotoxicity against mpx:GFP transgenic zebrafish 24 hrs post fertilization embryo neutrophils assessed as loss in neutrophil at 2 to 2.5 mg/ml. The format is cell-based, Danio rerio.
Data set [12] concerns Danio rerio. Put plainly: Toxicity in wild type zebrafish embryos assessed as pericardial edema at 2500 ug/ml treated for 96 hrs post fertilization starting from 6 hrs post fertilization by inverted microscopic analysis relative to control. The format is organism-based. The conditions noted are these: in vivo.
Data set [13] is filed under the species Danio rerio. Put plainly: Anti-melanogenic activity in wild type zebrafish 24 hrs post fertilization embryos assessed as decrease in body pigmentation at >= 500 ug/ml after 48 hrs. The format is functional, organism-based.
A short description of data set [14]: Toxicity in wild type zebrafish embryos assessed as dead embryo at 2000 ug/ml treated for 96 hrs post fertilization starting from 6 hrs post fertilization by inverted microscopic analysis relative to control. Format: organism-based, Danio rerio. The settings on record: in vivo, read-out: Activity.
Data set [15] is filed under the species Danio rerio. The data set can be described thus: Toxicity in wild type zebrafish embryos assessed as scoliosis at 2.5 ug/ml treated for 96 hrs post fertilization starting from 6 hrs post fertilization by inverted microscopic analysis relative to control. The conditions noted are these: in vivo. The format is organism-based.
The species entered for data set [16] is Danio rerio. Put plainly: Toxicity in wild type zebrafish embryos assessed as skeletal deformities at 2000 ug/ml treated for 96 hrs post fertilization starting from 6 hrs post fertilization by inverted microscopic analysis relative to control. Format: organism-based. The conditions noted are these: in vivo.
Data set [17] is filed under the species Danio rerio. The data set can be described thus: Toxicity in wild type zebrafish embryos assessed as unhatched embryo at 100 ug/ml treated for 96 hrs post fertilization starting from 6 hrs post fertilization by inverted microscopic analysis relative to control. The format is organism-based. The conditions noted are these: in vivo.
Data set [18] can be described thus: Toxicity in wild type zebrafish embryos assessed as dead embryo at 2500 ug/ml treated for 96 hrs post fertilization starting from 6 hrs post fertilization by inverted microscopic analysis relative to control. The format is organism-based, Danio rerio. The conditions noted are these: in vivo, read-out: Activity.
Data set [19] is described as follows: Toxicity in wild type zebrafish embryos assessed as dead embryo at 100 ug/ml treated for 96 hrs post fertilization starting from 6 hrs post fertilization by inverted microscopic analysis relative to control. The format is organism-based, Danio rerio. The settings on record: in vivo, read-out: Activity.
Data set [20] deals with Neutrophil. The data set can be described thus: Anti-melanogenic activity in mpx:GFP transgenic zebrafish 24 hrs post fertilization embryo neutrophils assessed as decrease in pigmentation at 2 to 2.5 mg/ml. The format is functional, cell-based. The conditions noted are these: Danio rerio.
The species entered for data set [21] is Danio rerio. Put plainly: Toxicity in wild type zebrafish embryos assessed as skeletal deformities at 1000 ug/ml treated for 96 hrs post fertilization starting from 6 hrs post fertilization by inverted microscopic analysis relative to control. Format: organism-based. The settings on record: in vivo.
Data set [22] is filed under the species Danio rerio. The data set can be described thus: Toxicity in wild type zebrafish embryos assessed as skeletal deformities at 500 ug/ml treated for 96 hrs post fertilization starting from 6 hrs post fertilization by inverted microscopic analysis relative to control. The format is organism-based. The settings on record: in vivo.
For data set [23], the species on record is Danio rerio. Put plainly: Toxicity in wild type zebrafish embryos assessed as normal embryo at 100 ug/ml treated for 96 hrs post fertilization starting from 6 hrs post fertilization by inverted microscopic analysis relative to control. Format: organism-based. The settings on record: in vivo.
Data set [24] in a line: Toxicity in wild type zebrafish embryos assessed as dead embryo at 1000 ug/ml treated for 96 hrs post fertilization starting from 6 hrs post fertilization by inverted microscopic analysis relative to control. Format: organism-based, Danio rerio. The settings on record: in vivo, read-out: Activity.
For data set [25], the species on record is Danio rerio. The data set can be described thus: Toxicity in wild type zebrafish embryos assessed as teratogenic embryo at 500 ug/ml treated for 96 hrs post fertilization starting from 6 hrs post fertilization by inverted microscopic analysis relative to control. Format: organism-based. The conditions noted are these: in vivo.
For data set [26], the species on record is Danio rerio. The data set can be described thus: Toxicity in wild type zebrafish embryos assessed as unhatched embryo at 2000 ug/ml treated for 96 hrs post fertilization starting from 6 hrs post fertilization by inverted microscopic analysis relative to control. The format is organism-based. The conditions noted are these: in vivo.
The species named for data set [27] is Danio rerio. Put plainly: Toxicity in wild type zebrafish embryos assessed as otoliths at 2500 ug/ml treated for 96 hrs post fertilization starting from 6 hrs post fertilization by inverted microscopic analysis relative to control. Format: organism-based. The conditions noted are these: in vivo.
For data set [28], the species on record is Danio rerio. Put plainly: Toxicity in wild type zebrafish embryos assessed as notochord at 2000 ug/ml treated for 96 hrs post fertilization starting from 6 hrs post fertilization by inverted microscopic analysis relative to control. Format: organism-based. The conditions noted are these: in vivo.
Data set [29] has as its system Danio rerio. The data set can be described thus: Toxicity in wild type zebrafish embryos assessed as yolk edema at 2000 ug/ml treated for 96 hrs post fertilization starting from 6 hrs post fertilization by inverted microscopic analysis relative to control. The format is organism-based. The conditions noted are these: in vivo.
The species entered for data set [30] is Danio rerio. The data set can be described thus: Toxicity in wild type zebrafish embryos assessed as head malformation at 2500 ug/ml treated for 96 hrs post fertilization starting from 6 hrs post fertilization by inverted microscopic analysis relative to control. The format is organism-based. The settings on record: in vivo.

Calls of active or inactive are those of the source. The rule behind the calls is not given here.

Description for in vivo: Toxicity in wild type zebrafish embryos assessed as dead embryo at 12.5 ug/ml treated for 96 hrs post fertilization starting from 6 hrs post fertilization by inverted microscopic analysis relative to control

Turning to `O=c1cc(-c2ccccc2)c2c(O)cc(O)cc2o1`, the mortality at 15 ug/ml in data set [1] came out at 0%. Further, the Activity in the data set filed under Danio rerio [2] is recorded as 0%; in the data set filed under Danio rerio [3], 0%; with Neutrophil [6] it was “Non-Toxic”; in the data set filed under Danio rerio [8], 0%; in the data set listed under Danio rerio [9], 0%. Also, on Tyrosinase (Danio rerio) [4], the melanin content % of control is 63%. Also, the Ratio IC50 at Tyrosinase (Danio rerio) [5] came out at 147. Further, in the data set on Neutrophil [7], the result was Active.
For `Oc1ccc(O)cc1` [HYDROQUINONE], in the data set “in vivo”, the mortality at 12.5 ug/ml stood at 66.7%.
Consider `O=c1cc(-c2ccccc2)c2ccc(O)cc2o1`, for which the mortality at 15 ug/ml in data set [1] was 0%. Besides, the Activity was 0% in the data set listed under Danio rerio [2]; 0% in the data set filed under Danio rerio [3]; “Non-Toxic” in the data set with Neutrophil [6]; 0% in the data set filed under Danio rerio [8]; 0% in the data set listed under Danio rerio [9]. Besides, the melanin content % of control at Tyrosinase (Danio rerio) [4] turned out to be 93%. The Ratio IC50 on Tyrosinase (Danio rerio) [5] came to 62. In addition, the result with Neutrophil [7] was Active.
As for `O=c1cc(CO)occ1O` [KOJIC ACID], the Activity in the data set filed under Danio rerio [10] is given as 3.33%; with Neutrophil [11], “Toxic”; with Danio rerio [12] it was 100%; in the data set listed under Danio rerio [15], “Toxic”; in the data set filed under Danio rerio [16] it was 78.33%; in the data set listed under Danio rerio [17], 0%. The Activity in the data set listed under Danio rerio [21] came to 0%; in the data set filed under Danio rerio [22] it was 0%; in the data set listed under Danio rerio [23], 65%; in the data set listed under Danio rerio [25] it was 86.67%; in the data set listed under Danio rerio [26], 0%; in the data set listed under Danio rerio [27], 86.67%. Also, the Activity in the data set filed under Danio rerio [28] is reported as 0%; in the data set with Danio rerio [29] it was 0%; in the data set listed under Danio rerio [30] it was 98.33%. In addition, the outcome in the data set listed under Danio rerio [13] and in the data set on Neutrophil [20] was Active. In addition, the mortality at 2000 ug/ml in [14] is 0%. In addition, the mortality at 2500 ug/ml in [18] is 0%. The mortality at 100 ug/ml in [19] stood at 0%. In addition, the mortality at 1000 ug/ml in data set [24] worked out at 0%.
